Test results as given in the METLIN SMRT retention time set (Domingo-Almenara et al. 2019).

Experiment: gradient 5% acetonitrile 3 min, to 50% in 2 min, to 85% in 15 min, held 3 min, 100 µL/min
Settings: column: Zorbax Extend-C18 2.1 x 50 mm; eluents: water / acetonitrile, 0.1% formic acid
Outline: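 Mixtures of ~100 pure standards were chromatographed on a Zorbax Extend-C18 column (2.1 × 50 mm, 1.8 μm) at 100 μL/min using water and acetonitrile, each with 0.1% formic acid. Detection used a quadrupole time-of-flight mass spectrometer in positive and negative ionization mode, and data collection spanned 3 months. Retention time was obtained from adduct peaks picked computationally and each checked manually.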

RP-LC retention time	SMILES
869 s	CCCn1cc(S(=O)(=O)Nc2ccccc2F)c2cccnc21
658 s	COc1cccc(CC(=O)NC2CCN(c3cc(-c4cccs4)[nH]n3)C2)c1 (stereo not given)
910 s	COc1ccccc1C(=O)Oc1ccc(N(C)C2=NS(=O)(=O)c3ccccc32)cc1
830 s	O=C(Nc1nnc(C2CC(=O)N(c3ccc(F)cc3)C2)o1)c1ccc(C(F)(F)F)cc1 (stereo not given)
666 s	COCCCN1C(=O)CC(N2CCN(c3ccc(F)cc3)CC2)C1=O (stereo not given)
735 s	CC(C)c1nnc(-c2cccnc2N2CCN(C(=O)c3ccco3)CC2)o1
878 s	CCOC(=O)c1ccc(N2CC3=C(C2=O)C(c2ccc(OC)cc2)NC(=O)N3C)cc1 (stereo not given)
643 s	Cc1ccc2[nH]c3c(c2c1)CCNC31C(=O)Nc2ccccc21 (stereo not given)
1010 s	Cc1cccc(-c2noc(C3CCCN3C(=O)Nc3ccccc3C)n2)c1 (stereo not given)
734 s	Cc1nc(CC(=O)NC2CCCC2)sc1C(=O)NCc1ccccc1
843 s	COc1ccc(NC(=O)c2nc(C)oc2C)cc1F
559 s	FC(F)(F)c1nc(N2CCN(C(c3ccccc3)c3ccccc3)CC2)nc2c1CCCCC2
872 s	COc1ccc(NC(=O)Cn2nc3cc(-c4ccc(OC)cc4)nc(C)n3c2=O)cc1
585 s	Cc1ccc(NC(=O)CN2CCC(C(=O)NCc3c(F)cccc3F)CC2)c(C)c1
1100 s	c1ccc(-n2ncc3c(Nc4ccc5c(c4)OCO5)nc(N4CCOCC4)nc32)cc1
1040 s	COC(=O)c1ccc2c(=O)n(-c3cc(C)cc(C)c3)c(N3CCOCC3)nc2c1
781 s	CN(C)C(=O)c1cc2c(s1)CCC(C(=O)N1CCOCC1)C2 (stereo not given)
800 s	COc1ccc(-c2nc(C)cc3nn(CC(=O)Nc4cccc(OC)c4)c(=O)n23)cc1
1150 s	COc1ccccc1Nc1nc(-c2ccccc2)cs1
949 s	O=C(CCc1nc(CSc2nnc(-c3ccccc3)o2)no1)Nc1ccc(Cl)cc1
1000 s	COC(=O)c1c(-c2ccc(Cl)cc2)noc1N1CCN(c2ccccn2)CC1
980 s	CCOc1ccc(N2C(=O)C3N=NN(Cc4nc(-c5ccccc5OCC)no4)C3C2=O)cc1 (stereo not given)

RP-LC retention time	SMILES
707 s	CCC(C)NC(=O)Cn1c(=O)cc(-c2nc(C(C)C)no2)c2ccccc21 (stereo not given)
652 s	Cc1c(C(=O)Nc2cc(=O)n(C)c(=O)n2C)cccc1[N+](=O)[O-]
756 s	COCC(=O)Nc1ccc2nc(-c3ccc(Cl)cc3)cc(OCC(=O)OC)c2c1
780 s	CCCCNC(=O)CSc1nnc2c3cc(-c4ccccc4)nn3ccn12
1080 s	COc1ccc(NC(=O)C2CCCN(c3nc4c(s3)c(C)nn4-c3ccc(OC)cc3)C2)cc1 (stereo not given)
806 s	CCCc1cc(=O)oc2cc(C)cc(OCC(=O)N[C@H](C(=O)O)C(C)C)c12
968 s	COc1ccc(-c2noc(C3CCCN3C(=O)c3cc(F)ccc3F)n2)cc1 (stereo not given)
628 s	CC(C)c1nnc2n1CCN(C(=O)c1cc(-c3cccs3)[nH]n1)C2
635 s	Cc1ccc(F)c2c(=O)c3c([nH]c12)CCN(CC(=O)Nc1ccc(F)c(F)c1)C3
588 s	CCN(CC)C(=O)c1ccc2c(c1)N(Cc1ccc(C)cc1)C(=O)CO2
997 s	CCc1nc(-c2csc(S(=O)(=O)N3CCC(C(=O)NC4CCCCCC4)CC3)c2)no1
887 s	COC(=O)c1ccc2c(=O)n(-c3cccc(OC)c3)c(N3CCOCC3)nc2c1
819 s	CCc1nc2cc(-c3noc(CNC(=O)Cc4ccccc4)n3)ccc2o1
859 s	CCOc1ccc(NC(=O)N2CCCC2c2nc(-c3ccccc3OC)no2)cc1 (stereo not given)
920 s	O=C(Nc1ccc(F)cc1)C1CCN(S(=O)(=O)c2cc(C(=O)N3CCCCCC3)cs2)CC1
999 s	CC1CCN(S(=O)(=O)c2cc(-c3nnc(C4CCC4)o3)co2)CC1
600 s	CCN(CC)c1ccc(NC(=O)CSc2cc(N3CCCC3)ncn2)c(C)c1
604 s	Cn1cc(CCN2CCN(S(=O)(=O)c3cccs3)CC2)c2cccnc21
990 s	COc1ccc(OC)c(NC(=O)C(=O)c2c(C)n(C)c3ccccc23)c1
726 s	CCN(CC)CCNC(=O)c1ccc(NCN2C(=O)NC(c3ccccc3)(c3ccccc3)C2=O)cc1
973 s	O=c1n(Cc2cc(F)cc(F)c2)nc2c(S(=O)(=O)N3CCCCCC3)cccn12
558 s	O=C(Cn1cnc2ccccc21)Nc1nc2c(s1)C(=O)CCC2

RP-LC retention time	SMILES
711 s	COc1ccc(CNC(=O)N2CCN(Cc3nc4ccc(Cl)cc4o3)CC2)cc1
681 s	CCn1cc(C(=O)N[C@H](C(=O)O)C(C)C)c(=O)c2cc3c(cc21)OCO3
972 s	Cc1cc2nn(CC(=O)Nc3ccc(F)cc3)c(=O)n2c(Nc2ccc(F)cc2)n1
895 s	CCc1nc(OCC(=O)Nc2ccc(C)cc2Br)c2ccccc2n1
884 s	COCc1cc(=O)n(CC(=O)Nc2cccc(Cl)c2)c(N2CCOCC2)n1
664 s	C=CCN1CC(c2nc3ccccc3n2CC(O)COc2cc(C)ccc2C)CC1=O (stereo not given)
718 s	C=C1C(=O)C2=CC1CCC(=O)C1(C)CCC(OC(C)=O)C(C)(C)C1CC2O (stereo not given)
755 s	O=C(CCc1csc(NC(=O)c2cccs2)n1)NCCc1c[nH]c2ccccc12
801 s	CCCCNC(=O)c1nc(Nc2ccccc2)c2ccccc2n1
793 s	Cc1ccc(CNC(=O)c2cccc(-c3nc4cccnc4n3C(C)C)c2)o1
972 s	Cc1ccc(CNC(=O)C2(C)CCN(C(=O)Nc3ccc(C)c(Cl)c3)CC2)cc1
785 s	CN(C(=O)C1CCCN(c2ncnc3c2nc2n3CCCCC2)C1)c1ccccc1F (stereo not given)
660 s	Cn1c(NC(=O)c2ccc(Cl)cc2)cc(=O)n(C)c1=O
707 s	CCCS(=O)(=O)N1CCCN(S(=O)(=O)c2ccccc2)CCC(=O)NCC1
876 s	NC(=O)C1CCN(c2nc3ccccc3nc2S(=O)(=O)Cc2ccc(Cl)cc2)CC1
902 s	COc1cc(NC(=O)C2CCN(S(=O)(=O)c3cc(-c4noc(C)n4)cs3)CC2)cc(OC)c1
612 s	CC(=O)N1CCC(n2c(C)nc(C(=O)Nc3ccc4c(c3)OCCO4)c2C)CC1
724 s	CN(C)S(=O)(=O)c1ccc(C(=O)N2CCC3(CC2)OCCS3)cc1
590 s	O=C(NCCN1CCOCC1)C1CCN(c2cnc(N3CCSCC3)nc2)CC1
639 s	CC(=O)N1CCc2nn(CC(=O)N3CCc4ccccc43)c(=O)cc2C1
885 s	O=C(CN1C(=O)C2CCCCN2c2ccc(S(=O)(=O)N3CCCC3)cc21)NCCc1ccco1 (stereo not given)
